Laboratory results published in patent publication US8466107B2, “Fibrin-binding peptides and conjugates thereof” (Bracco Imaging SpA, priority 2006, dated 2013).
Bridge positions count the residues as written; N and C are the ends. Peptide text beside a SMILES is read from it. * marks the point of attachment. ξ: configuration not given here. αGalNAc = CC(=O)N[C@@H]1[C@@H](O)[C@@H](O)[C@@H](CO)O[C@@H]1*; 5FAM = O=C1OC2(c3ccc(O)cc3Oc3cc(O)ccc32)c2ccc(C(=O)*)cc21; ξTetrahydrofuran2carbonyl = O=C(C1CCCO1)*

Target: DDE (fibrin-derived polypeptide) (Homo sapiens, UniProt P02671+P02675+P02679)
Sequence (P02671 124-216): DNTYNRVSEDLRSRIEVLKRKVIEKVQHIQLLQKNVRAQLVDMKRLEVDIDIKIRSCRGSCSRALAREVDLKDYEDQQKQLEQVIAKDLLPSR
Sequence (P02675 164-491): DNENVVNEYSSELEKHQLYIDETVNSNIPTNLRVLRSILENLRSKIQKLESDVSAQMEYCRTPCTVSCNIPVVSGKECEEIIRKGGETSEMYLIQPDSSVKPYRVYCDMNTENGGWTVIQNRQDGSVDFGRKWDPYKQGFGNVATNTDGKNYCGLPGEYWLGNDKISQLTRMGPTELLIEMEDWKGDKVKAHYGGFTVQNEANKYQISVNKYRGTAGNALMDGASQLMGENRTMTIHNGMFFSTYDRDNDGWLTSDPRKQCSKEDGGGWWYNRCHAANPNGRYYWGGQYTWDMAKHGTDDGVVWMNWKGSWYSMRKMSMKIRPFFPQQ
Sequence (P02679 114-432): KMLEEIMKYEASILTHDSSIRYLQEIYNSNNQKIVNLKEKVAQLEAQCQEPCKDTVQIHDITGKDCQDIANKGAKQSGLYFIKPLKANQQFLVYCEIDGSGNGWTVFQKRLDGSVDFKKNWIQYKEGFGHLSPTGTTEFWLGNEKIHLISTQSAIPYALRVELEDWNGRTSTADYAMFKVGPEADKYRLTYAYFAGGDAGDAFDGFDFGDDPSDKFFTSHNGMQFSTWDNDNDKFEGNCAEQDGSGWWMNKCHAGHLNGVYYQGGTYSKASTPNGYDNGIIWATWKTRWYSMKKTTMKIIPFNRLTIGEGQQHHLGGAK
Sequence (P02671 36-97): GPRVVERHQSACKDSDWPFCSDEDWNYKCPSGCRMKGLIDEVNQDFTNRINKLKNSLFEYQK
Sequence (P02675 45-152): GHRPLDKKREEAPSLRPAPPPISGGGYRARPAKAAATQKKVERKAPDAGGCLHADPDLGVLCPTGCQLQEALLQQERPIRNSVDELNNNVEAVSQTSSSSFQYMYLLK
Sequence (P02679 27-88): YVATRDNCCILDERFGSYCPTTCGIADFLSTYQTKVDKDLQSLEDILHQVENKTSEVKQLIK
Test: Direct binding fluorescence polarization (FP) assay using 5-carboxyfluorescein labeled peptides
Conditions: 20 nM CF5-labeled peptide, serial dilutions of DDE, anisotropy read at 485 nm; read-out: KD (μM) Direct Binding (n = 2)
Protocol: Assay of Fibrin Binding Peptides by Direct Binding Fluorescence Polarization (FP) Procedure using 5-Carboxyfluoresein Labeled Peptides
Protocol • 1. Prepare 1 mL of 40 nM solution of 5-carboxyfluorescein-labeled peptide in HEPES dilution buffer (HDB) with 0.01% Tween. • HDB (10 mM HEPES, 150 mM […], 2 mM CaCl2) • 2. Dilute the 40 nM solution to obtain 1 ml of a 20 nM solution of the test 5-carboxyfluorescein-labeled peptide. • 3. Prepare a solution of DDE at a concentration that will be approximately 5-10 fold greater than the expected KD. For the described assay an 8 μM concentration of DDE was prepared. • 4. Mix equal volumes of the DDE solution with the 40 nM peptide solution. • 5. Prepare serial dilutions of DDE in a solution consisting of the binding buffer with 0.01% Tween20 and 20 nM of the 5-carboxyfluorescein-labeled peptide. • 6. Make dilutions as shown in the following table in a Labsystems 384-well microplate and mix by repeated aspiration and dispensing of the solution into the wells. • 7. Centrifuge the plate at 2000 RPM for 5 minutes to remove air pockets in the wells. • 8. Read in Tecan Polarion Plate Reader at 485 nm to obtain the anisotropy value.
The anisotropy (in mP—millipolarization units) vs the logarithm of the concentration (micromoles/liter) of the receptor concentration is graphed. The dissociation constant is obtained at the midpoint of the curve whose extrema are Afree and Abound where Afree is the anisotropy of the free peptide and Abound is the anisotropy of the fully bound peptide. The theory, methods of operation and mathematical analysis is described in, for example, the following reference: Fluorescence Polarization Technical Resource Guide Technical Resource Guide 4th Edn. Invitrogen Corporation•501 Charmany Drive•Madison, Wis. 53719 USA. Particularly, the mathematical analysis of the data and obtaining binding constants is described in Chapter 8: Analysis of FP Binding Data pp 8-2-8-7.

Compound	Kd
CC(=O)NCC(=O)N1CCC[C@H]1C(=O)N1CCC[C@H]1C(=O)NCC(=O)N[C@@H](Cc1c[nH]c2ccccc12)C(=O)N[C@@H](CCC(N)=O)C(=O)N1CCC[C@H]1C(=O)N[C@H]1CSSC[C@@H](C(=O)N[C@@H](Cc2c[nH]c3ccccc23)C(=O)N[C@@H](CC(=O)O)C(=O)N2CCC[C@H]2C(=O)NCC(=O)NCC(=O)NCC(=O)N[C@@H](CCCCNC(=O)c2ccc3c(c2)C(=O)OC32c3ccc(O)cc3Oc3cc(O)ccc32)C(N)=O)NC(=O)[C@H](Cc2ccccc2)NC(=O)[C@H]([C@@H](C)O)NC(=O)[C@H](Cc2c[nH]c3ccccc23)NC(=O)[C@H](CO)NC(=O)[C@H](CCC(=O)O)NC(=O)[C@H](C)NC(=O)[C@@H]2CCCN2C1=O [Seq034-CF5] (Ac-GPPGWQPCPAESWTFCWDPGGGK(5FAM)-NH2; disulfide 8-16)	0.31 µM
CC(=O)NCC(=O)NCC(=O)N[C@@H](CCCNC(=N)N)C(=O)NCC(=O)N[C@@H](Cc1c[nH]c2ccccc12)C(=O)N[C@@H](CCC(N)=O)C(=O)N1CCC[C@H]1C(=O)N[C@H]1CSSC[C@@H](C(=O)N[C@@H](Cc2c[nH]c3ccccc23)C(=O)N[C@@H](CC(=O)O)C(=O)N2CCC[C@H]2C(=O)NCC(=O)NCC(=O)NCC(=O)N[C@@H](CCCCNC(=O)c2ccc3c(c2)C(=O)OC32c3ccc(O)cc3Oc3cc(O)ccc32)C(N)=O)NC(=O)[C@H](Cc2ccccc2)NC(=O)[C@H]([C@@H](C)O)NC(=O)[C@H](Cc2c[nH]c3ccccc23)NC(=O)[C@H](CO)NC(=O)[C@H](CCC(=O)O)NC(=O)[C@H](C)NC(=O)[C@@H]2CCCN2C1=O [Seq035-CF5] (Ac-GGRGWQPCPAESWTFCWDPGGGK(5FAM)-NH2; disulfide 8-16)	0.52 µM
C[C@@H]1NC(=O)[C@@H]2CCCN2C(=O)[C@@H](NC(=O)[C@@H]2CCCN2C(=O)[C@H](CCC(N)=O)NC(=O)[C@H](Cc2c[nH]c3ccccc23)NC(=O)CN)CSSC[C@@H](C(=O)N[C@@H](Cc2c[nH]c3ccccc23)C(=O)N[C@@H](CC(=O)O)C(=O)N2CCC[C@H]2C(=O)NCC(=O)NCC(=O)NCC(=O)N[C@@H](CCCCNC(=O)c2ccc3c(c2)C(=O)OC32c3ccc(O)cc3Oc3cc(O)ccc32)C(N)=O)NC(=O)[C@H](Cc2ccccc2)NC(=O)[C@H]([C@@H](C)O)NC(=O)[C@H](Cc2c[nH]c3ccccc23)NC(=O)[C@H](CO)NC(=O)[C@H](CCC(=O)O)NC1=O [Seq038-CF5] (H-GWQPCPAESWTFCWDPGGGK(5FAM)-NH2; disulfide 5-13; N-terminus assumed)	0.24 µM
CC(=O)NCC(=O)N[C@@H](Cc1c[nH]c2ccccc12)C(=O)N[C@@H](CCC(N)=O)C(=O)N1CCC[C@H]1C(=O)N[C@H]1CSSC[C@@H](C(=O)N[C@@H](Cc2c[nH]c3ccccc23)C(=O)N[C@@H](CC(=O)O)C(=O)N2CCC[C@H]2C(=O)NCC(=O)NCC(=O)NCC(=O)N[C@@H](CCCCNC(=O)c2ccc3c(c2)C(=O)OC32c3ccc(O)cc3Oc3cc(O)ccc32)C(N)=O)NC(=O)[C@H](Cc2ccccc2)NC(=O)[C@H]([C@@H](C)O)NC(=O)[C@H](Cc2c[nH]c3ccccc23)NC(=O)[C@H](CO)NC(=O)[C@H](CCC(=O)O)NC(=O)[C@H](C)NC(=O)[C@@H]2CCCN2C1=O [Seq039-CF5] (Ac-GWQPCPAESWTFCWDPGGGK(5FAM)-NH2; disulfide 5-13)	0.24 µM
CC(=O)N[C@@H](CO)C(=O)NCC(=O)N[C@@H](CO)C(=O)NCC(=O)N[C@@H](CO)C(=O)NCC(=O)N[C@@H](CO)C(=O)NCC(=O)N[C@@H](Cc1c[nH]c2ccccc12)C(=O)N[C@@H](CCC(N)=O)C(=O)N1CCC[C@H]1C(=O)N[C@H]1CSSC[C@@H](C(=O)N[C@@H](Cc2c[nH]c3ccccc23)C(=O)N[C@@H](CC(=O)O)C(=O)N2CCC[C@H]2C(=O)NCC(=O)NCC(=O)NCC(=O)N[C@@H](CCCCNC(=O)c2ccc3c(c2)C(=O)OC32c3ccc(O)cc3Oc3cc(O)ccc32)C(N)=O)NC(=O)[C@H](Cc2ccccc2)NC(=O)[C@H]([C@@H](C)O)NC(=O)[C@H](Cc2c[nH]c3ccccc23)NC(=O)[C@H](CO)NC(=O)[C@H](CCC(=O)O)NC(=O)[C@H](C)NC(=O)[C@@H]2CCCN2C1=O [Seq040-CF5] (Ac-SGSGSGSGWQPCPAESWTFCWDPGGGK(5FAM)-NH2; disulfide 12-20)	0.53 µM

Now from value to compound:

Kd	Compound
0.47 µM	CC(=O)N[C@@H](CO)C(=O)NCC(=O)N[C@@H](CO)C(=O)NCC(=O)N[C@@H](CO)C(=O)NCC(=O)N[C@@H](CO)C(=O)NCC(=O)N[C@@H](Cc1c[nH]c2ccccc12)C(=O)N[C@@H](CCC(N)=O)C(=O)N1CCC[C@H]1C(=O)N[C@H]1CSSC[C@@H](C(=O)N[C@@H](Cc2c[nH]c3ccccc23)C(=O)N[C@@H](CC(=O)O)C(=O)N2CCC[C@H]2C(=O)NCC(=O)NCC(=O)NCC(=O)N[C@@H](CCCCNC(=O)c2ccc3c(c2)C(=O)OC32c3ccc(O)cc3Oc3cc(O)ccc32)C(N)=O)NC(=O)[C@H](Cc2ccccc2)NC(=O)[C@H]([C@@H](C)O)NC(=O)[C@H](Cc2c[nH]c3ccccc23)NC(=O)[C@H](CO)NC(=O)[C@H](CCC(=O)O)NC(=O)[C@H](Cc2c[nH]c3ccccc23)NC(=O)[C@@H]2CCCN2C1=O [Seq024-CF5] (Ac-SGSGSGSGWQPCPWESWTFCWDPGGGK(5FAM)-NH2; disulfide 12-20)
0.71 µM	CC(=O)N[C@@H](CCCCN)C(=O)N[C@@H](CCCCN)C(=O)NCC(=O)N[C@@H](Cc1c[nH]c2ccccc12)C(=O)N[C@@H](CCC(N)=O)C(=O)N1CCC[C@H]1C(=O)N[C@H]1CSSC[C@@H](C(=O)N[C@@H](Cc2c[nH]c3ccccc23)C(=O)N[C@@H](CC(=O)O)C(=O)N2CCC[C@H]2C(=O)NCC(=O)NCC(=O)NCC(=O)N[C@@H](CCCCNC(=O)c2ccc3c(c2)C(=O)OC32c3ccc(O)cc3Oc3cc(O)ccc32)C(N)=O)NC(=O)[C@H](Cc2ccccc2)NC(=O)[C@H]([C@@H](C)O)NC(=O)[C@H](Cc2c[nH]c3ccccc23)NC(=O)[C@H](CO)NC(=O)[C@H](CCC(=O)O)NC(=O)[C@H](Cc2c[nH]c3ccccc23)NC(=O)[C@@H]2CCCN2C1=O [Seq025-CF5] (Ac-KKGWQPCPWESWTFCWDPGGGK(5FAM)-NH2; disulfide 7-15)
0.76 µM	CC(=O)N[C@@H](CCCCN)C(=O)NCC(=O)N[C@@H](CCCCN)C(=O)NCC(=O)N[C@@H](CCCCN)C(=O)NCC(=O)N[C@@H](Cc1c[nH]c2ccccc12)C(=O)N[C@@H](CCC(N)=O)C(=O)N1CCC[C@H]1C(=O)N[C@H]1CSSC[C@@H](C(=O)N[C@@H](Cc2c[nH]c3ccccc23)C(=O)N[C@@H](CC(=O)O)C(=O)N2CCC[C@H]2C(=O)NCC(=O)NCC(=O)NCC(=O)N[C@@H](CCCCNC(=O)c2ccc3c(c2)C(=O)OC32c3ccc(O)cc3Oc3cc(O)ccc32)C(N)=O)NC(=O)[C@H](Cc2ccccc2)NC(=O)[C@H]([C@@H](C)O)NC(=O)[C@H](Cc2c[nH]c3ccccc23)NC(=O)[C@H](CO)NC(=O)[C@H](CCC(=O)O)NC(=O)[C@H](Cc2c[nH]c3ccccc23)NC(=O)[C@@H]2CCCN2C1=O [Seq026-CF5] (Ac-KGKGKGWQPCPWESWTFCWDPGGGK(5FAM)-NH2; disulfide 10-18)
0.5 µM	CC(=O)N[C@H]1[C@@H](OC[C@H](NC(C)=O)C(=O)N[C@@H](Cc2c[nH]c3ccccc23)C(=O)N[C@@H](CCC(N)=O)C(=O)N2CCC[C@H]2C(=O)N[C@H]2CSSC[C@@H](C(=O)N[C@@H](Cc3c[nH]c4ccccc34)C(=O)N[C@@H](CC(=O)O)C(=O)N3CCC[C@H]3C(=O)NCC(=O)NCC(=O)NCC(=O)N[C@@H](CCCCNC(=O)c3ccc4c(c3)C(=O)OC43c4ccc(O)cc4Oc4cc(O)ccc43)C(N)=O)NC(=O)[C@H](Cc3ccccc3)NC(=O)[C@H]([C@@H](C)O)NC(=O)[C@H](Cc3c[nH]c4ccccc34)NC(=O)[C@H](CO)NC(=O)[C@H](CCC(=O)O)NC(=O)[C@H](Cc3c[nH]c4ccccc34)NC(=O)[C@@H]3CCCN3C2=O)O[C@H](CO)[C@H](O)[C@@H]1O [Seq027-CF5] (Ac-S(αGalNAc)WQPCPWESWTFCWDPGGGK(5FAM)-NH2; disulfide 5-13)
1.21 µM	C[C@@H](O)[C@@H]1NC(=O)[C@H](Cc2c[nH]c3ccccc23)NC(=O)[C@H](CO)NC(=O)[C@H](CCC(=O)O)NC(=O)[C@H](Cc2c[nH]c3ccccc23)NC(=O)[C@@H]2CCCN2C(=O)[C@@H](NC(=O)[C@@H]2CCCN2C(=O)[C@H](CCC(N)=O)NC(=O)[C@H](Cc2c[nH]c3ccccc23)NC(=O)C2CCCO2)CSSC[C@@H](C(=O)N[C@@H](Cc2c[nH]c3ccccc23)C(=O)N[C@@H](CC(=O)O)C(=O)N2CCC[C@H]2C(=O)NCC(=O)NCC(=O)NCC(=O)N[C@@H](CCCCNC(=O)c2ccc3c(c2)C(=O)OC32c3ccc(O)cc3Oc3cc(O)ccc32)C(N)=O)NC(=O)[C@H](Cc2ccccc2)NC1=O (stereo partly shown) [Seq028-CF5] (ξTetrahydrofuran2carbonyl-WQPCPWESWTFCWDPGGGK(5FAM)-NH2; disulfide 4-12)
